Assay results from US3950374A, “Carbamate pesticide” (priority 1972, dated 1976).
Converted amounts (≈) assume the structure as drawn.

Each molecule was assayed on smaller brown planthoppers (Lacdelphax striatellus) (assay: Lethal effect on smaller brown planthoppers (Test Example 1)). Settings: 24 h.
Format: in vivo
Procedure: Lethal effect on smaller brown planthoppers (Lacdelphax striatellus)
Rice plants (15 to 20 cm tall) 15 days after germination, are dipped for 1 minute into each aqueous dilute solution of the present compounds in the form of emulsifiable concentrates, and placed in large glass tubes separately after air-drying. Thereafter, 20 to 30 adult planthoppers are released therein and covered with a wire net. After 24 hours, the number of dead and live planthoppers are observed to calculate LC50. The number of the compounds in Table 1 correspond to those of the compounds mentioned above.

| Structure (SMILES) | LC50 |
| --- | --- |
| CN(C(=O)Oc1ccc(Cl)cc1)[S+]([O-])c1ccccc1 (centres unmarked) [Compound 2] | 20 µg/mL (≈ 64.6 µM) |
| Cc1cccc(OC(=O)N(C)[S+]([O-])c2ccccc2)c1C (centres unmarked) [Compound 3] | 70 µg/mL (≈ 231 µM) |
| Cc1ccc(OC(=O)N(C)[S+]([O-])c2ccccc2)c(C)c1 (centres unmarked) [Compound 4] | 33 µg/mL (≈ 109 µM) |
| Cc1cc(C)cc(OC(=O)N(C)[S+]([O-])c2ccccc2)c1 (centres unmarked) [Compound 5] | 18 µg/mL (≈ 59.3 µM) |
| Cc1ccc(OC(=O)N(C)[S+]([O-])c2ccccc2)cc1C (centres unmarked) [Compound 6] | 25 µg/mL (≈ 82.4 µM) |
| Cc1cccc(OC(=O)N(C)[S+]([O-])c2ccccc2)c1 (centres unmarked) [Compound 7] | 43 µg/mL (≈ 149 µM) |
| Cc1ccc([S+]([O-])N(C)C(=O)Oc2ccc(C)c(C)c2)cc1 (centres unmarked) [Compound 8] | 50 µg/mL (≈ 158 µM) |
| Cc1ccc([S+]([O-])N(C)C(=O)Oc2cccc(C)c2C)cc1 (centres unmarked) [Compound 9] | 29 µg/mL (≈ 91.4 µM) |

What follows are molecules tested on green rice leafhoppers (Nephotettix cincpiceps) (assay: Effect on green rice leafhoppers in soil treatment (Test Example 4)). Settings: 6 % granules, 6 kg./10 ares soil treatment; released after 3 days, observed after 24 hours.
Format: in vivo
Procedure: Effect on green rice leafhoppers (Nephotettix cincpiceps) in soil treatment.
Each of 6 % granules of the present compounds is applied in a ratio of 6 kg./10 ares near the root of rice plants grown into the tillering stage in a 1/100,000 Wagner's pot. After 3 days, 30 adult leafhoppers are released and covered with a wire cage. After 24 hours, the number of dead and live leafhoppers are observed to calculate the mortality rate.

| Structure (SMILES) | Mortality |
| --- | --- |
| CN(C(=O)Oc1ccc(Cl)cc1)[S+]([O-])c1ccccc1 (centres unmarked) [Compound 2] | 75.0% |
| Cc1cc(C)cc(OC(=O)N(C)[S+]([O-])c2ccccc2)c1 (centres unmarked) [Compound 5] | 68.0% |
| Cc1cccc(OC(=O)N(C)[S+]([O-])c2ccccc2)c1 (centres unmarked) [Compound 7] | 96.7% |
| Cc1ccc([S+]([O-])N(C)C(=O)Oc2cccc(C)c2C)cc1 (centres unmarked) [Compound 9] | 83.3% |

The molecules below were run on nematode (assay: Effect on nematode (Test Example 6)). Settings: 500 ppm active ingredient; after 24 hours.
Format: in vivo
Procedure: 0.5 ml. of a nematode-containing aqueous solution separated from food is placed in a test tube with ground stopper containing 0.5 ml. of an aqueous dilute solution of each emulsifiable concentrate of the present compounds. The concentration of the active ingredient in the mixture is adjusted to 500 ppm. After 24 hours, the number of dead and live nematodes are observed microscopically to calculate the mortality rate.

| Structure (SMILES) | Mortality |
| --- | --- |
| CN(C(=O)Oc1ccc(Cl)cc1)[S+]([O-])c1ccccc1 (centres unmarked) [Compound 2] | 79.8% |
| Cc1ccc(OC(=O)N(C)[S+]([O-])c2ccccc2)cc1C (centres unmarked) [Compound 6] | 100% |

The molecules below were run on larvae of northern house mosquito (Culex pipien pallens) (assay: Effect on mosquito larvae (Test Example 8)). Settings: not given.
Format: in vivo
Procedure: Effect on mosquito larvae.
200 ml. of an aqueous solution of each emulsifiable concentrate of the present compounds which is adjusted to the concentration of 1 ppm with pure water are placed in a 300 ml. beaker and 30 larvae of northern house mosquito (Culex pipien pallens) are released therein. the mortality rate is calculated.

| Structure (SMILES) | mortality at 1 ppm |
| --- | --- |
| Cc1ccc(OC(=O)N(C)[S+]([O-])c2ccccc2)cc1C (centres unmarked) [Compound 6] | 70% |
| Cc1ccc([S+]([O-])N(C)C(=O)Oc2ccc(C)c(C)c2)cc1 (centres unmarked) [Compound 8] | 100% |
| Cc1ccc([S+]([O-])N(C)C(=O)Oc2cccc(C)c2C)cc1 (centres unmarked) [Compound 9] | 66.7% |

Each molecule was assayed on smaller brown planthoppers (Loadelphax striatellus) (assay: Residual effect on smaller brown planthoppers (Test Example 11)). Settings: 1000 fold dilute solution of 50 % emulsifiable concentrate; after 1 day.
Format: in vivo
Procedure: Residual effect on smaller brown planthoppers (Loadelphax striatellus).
From 18 to 23 rice plants are grown into a 3 - 4 leaves stage in each flower pot of 10 cm. in diameter, then a 1000 fold aqueos dilute solution of each 50 % emulsifiable concentrate of the present componds is applied thereto. After air-drying, each pot is covered with a wire cage, and 20 - 30 adult planthoppers are released therein, and after 24 hours the mortality rate is calculated. Furthermore, the planthoppers are released each day to investigate the residual effect of the present compounds.

| Structure (SMILES) | Mortality after 1 day |
| --- | --- |
| CN(C(=O)Oc1ccc(Cl)cc1)[S+]([O-])c1ccccc1 (centres unmarked) [Compound 2] | 96.7% |
| Cc1cccc(OC(=O)N(C)[S+]([O-])c2ccccc2)c1C (centres unmarked) [Compound 3] | 100% |
| Cc1ccc(OC(=O)N(C)[S+]([O-])c2ccccc2)c(C)c1 (centres unmarked) [Compound 4] | 100% |
| Cc1cc(C)cc(OC(=O)N(C)[S+]([O-])c2ccccc2)c1 (centres unmarked) [Compound 5] | 100% |
| Cc1ccc(OC(=O)N(C)[S+]([O-])c2ccccc2)cc1C (centres unmarked) [Compound 6] | 90.0% |
| Cc1cccc(OC(=O)N(C)[S+]([O-])c2ccccc2)c1 (centres unmarked) [Compound 7] | 86.7% |
| Cc1ccc([S+]([O-])N(C)C(=O)Oc2ccc(C)c(C)c2)cc1 (centres unmarked) [Compound 8] | 85.0% |
| Cc1ccc([S+]([O-])N(C)C(=O)Oc2cccc(C)c2C)cc1 (centres unmarked) [Compound 9] | 100% |

Same assay, conditions: 1000 fold dilute solution of 50 % emulsifiable concentrate; after 4 days (residual effect)

| Structure (SMILES) | Mortality after 4 days |
| --- | --- |
| CN(C(=O)Oc1ccc(Cl)cc1)[S+]([O-])c1ccccc1 (centres unmarked) [Compound 2] | 75.0% |
| Cc1cccc(OC(=O)N(C)[S+]([O-])c2ccccc2)c1C (centres unmarked) [Compound 3] | 64.0% |
| Cc1ccc(OC(=O)N(C)[S+]([O-])c2ccccc2)c(C)c1 (centres unmarked) [Compound 4] | 83.3% |
| Cc1cc(C)cc(OC(=O)N(C)[S+]([O-])c2ccccc2)c1 (centres unmarked) [Compound 5] | 100% |
| Cc1ccc(OC(=O)N(C)[S+]([O-])c2ccccc2)cc1C (centres unmarked) [Compound 6] | 63.3% |
| Cc1cccc(OC(=O)N(C)[S+]([O-])c2ccccc2)c1 (centres unmarked) [Compound 7] | 65.0% |
| Cc1ccc([S+]([O-])N(C)C(=O)Oc2ccc(C)c(C)c2)cc1 (centres unmarked) [Compound 8] | 50.0% |
| Cc1ccc([S+]([O-])N(C)C(=O)Oc2cccc(C)c2C)cc1 (centres unmarked) [Compound 9] | 62.3% |

Same assay, conditions: 1000 fold dilute solution of 50 % emulsifiable concentrate; after 7 days (residual effect)

| Structure (SMILES) | Mortality after 7 days |
| --- | --- |
| CN(C(=O)Oc1ccc(Cl)cc1)[S+]([O-])c1ccccc1 (centres unmarked) [Compound 2] | 20.0% |
| Cc1cccc(OC(=O)N(C)[S+]([O-])c2ccccc2)c1C (centres unmarked) [Compound 3] | 50.0% |
| Cc1ccc(OC(=O)N(C)[S+]([O-])c2ccccc2)c(C)c1 (centres unmarked) [Compound 4] | 53.3% |
| Cc1cc(C)cc(OC(=O)N(C)[S+]([O-])c2ccccc2)c1 (centres unmarked) [Compound 5] | 45.0% |
| Cc1ccc(OC(=O)N(C)[S+]([O-])c2ccccc2)cc1C (centres unmarked) [Compound 6] | 50.0% |
| Cc1cccc(OC(=O)N(C)[S+]([O-])c2ccccc2)c1 (centres unmarked) [Compound 7] | 46.7% |
| Cc1ccc([S+]([O-])N(C)C(=O)Oc2ccc(C)c(C)c2)cc1 (centres unmarked) [Compound 8] | 42.0% |
| Cc1ccc([S+]([O-])N(C)C(=O)Oc2cccc(C)c2C)cc1 (centres unmarked) [Compound 9] | 30.0% |
